Assay results as given in publication PMC5309245, “Discovery and Characterization of Diazenylaryl Sulfonic Acids as Inhibitors of Viral and Bacterial Neuraminidases” (Frontiers in Microbiology, 2017).
Counter-ions that a name gives are not always drawn. Like-named read-outs stand apart in the source and are kept apart here.

Legend:
[1] = system: human erythrocytes; assay type: cell-based
Experimental: (§1) Viral (whole virus) and bacterial NA activity as well as their inhibition were measured by using a fluorescence (FL) assay with the substrate 2′-(4-methylumbelliferyl)-α-D-N-acetylneuraminic acid sodium salt hydrate (MUNANA, 100 μM; Sigma-Aldrich GmbH, Taufkirchen, Germany), and/or a hemagglutination (HA)-based NA inhibition assay (HA assay) with human erythrocytes (Institute of Transfusion Medicine, University Hospital Jena, Jena, Germany), both assays as published recently (Richter et al., [2015]). Recombinant NanA (rNanA) and total precipitated bacterial protein of S. pneumoniae DSM20566 were used in FL and HA assays. Interference of the compounds with the FL signal (self-fluorescence and quenching) was excluded as described previously (Richter et al., [2015]). […] Each compound was tested at least three times in both NA inhibition assays.
Supplementary Table 1. Assay interference phenomena of test compounds in the HA-based […]
sample concentrations [µM] in viral HA-assay bacterial HA-assay […]
hem- prevention of erythrocyte hem- erythrocyte agglutinationa virus-induced lysisc agglutinationd lysise […]
cTest compounds lysed the human erythrocytes (2 h at 4°C). […]

[2] = system: human erythrocytes; assay type: cell-based; remark: listed apart in the source
Experimental: as §1
Supplementary Table 1. […]
eTest compounds lysed the human erythrocytes (4 h at 37°C and 12 h at 4°C).

[3] = system: S. pneumoniae DSM20566; assay: Bactericidal or bacteriostatic activity (subculture on blood agar); assay type: cell-based, Streptococcus pneumoniae DSM20566; details: for cfu per agar plate: 18 h, then subculture
[4] = system: influenza A virus 8178/09; assay: microbe, parasite or virus in culture; assay type: cell-based, influenza A virus A/Jena/8178/2009 (H1N1); details: for IC50: Influenza A virus, MDCK, 48 h, read-out: 50% inhibitory concentration, influenza A virus 8178/09
[5] = system: S. pneumoniae DSM20566; assay: Microtiter broth microdilution assay, planktonic growth; assay type: cell-based, Streptococcus pneumoniae DSM20566; details: 18 h, maximum 50 μM; for IC50: Streptococcus pneumoniae, DSM20566, read-out: 50% inhibitory concentration, S. pneumoniae DSM20566 planktonic growth
[6] = in vitro; details: dog
[7] = system: 8178/09-, WSN/33-, or HK/68-induced cytopathic effect; assay: CPE inhibition assay (viruses not separated); assay type: cell-based; details: Influenza A virus, MDCK, read-out: IC50 of inhibition of the 8178/09-, WSN/33-, or HK/68-induced cytopathic effect
[8] = biological target: T1, S. pneumoniae DSM20566 NA (Streptococcus pneumoniae, UniProt P62575); assay: HA-based NA inhibition assay, S. pneumoniae DSM20566; assay type: cell-based
T1 construct: host or cells: either rNanA from E. coli BL21(DE3) or total precipitated protein of S. pneumoniae DSM20566

[9] = system: S. pneumoniae DSM20566 biofilm; assay: Biofilm inhibition assay; assay type: cell-based, Streptococcus pneumoniae DSM20566; details: for inhibition at 50 µM: Streptococcus pneumoniae, DSM20566, read-out: Inhibition of biofilm formation at the maximum tested concentration; for 50% inhibitory concentration, S. pneumoniae DSM20566 biofilm formation: 24 h, maximum 50 μM
[10] = biological target: IAV HK/68 NA (whole virus) (Influenza A virus, UniProt Q91MA2); assay: biochemical; set-up: species or system influenza A virus A/Hong Kong/68 (H3N2); details: for IC50: NA inhibition using FL assay IC50, IAV HK/68
[11] = system: influenza A virus HK/68; assay: microbe, parasite or virus in culture; assay type: cell-based, influenza A virus A/Hong Kong/68 (H3N2); details: for IC50: Influenza A virus, MDCK, 48 h, read-out: 50% inhibitory concentration, influenza A virus HK/68
[12] = biological target: T2, S. pneumoniae DSM20566 NA (NanA) (Streptococcus pneumoniae, UniProt P62575); assay: FL NA inhibition assay, S. pneumoniae DSM20566; assay type: biochemical
T2 construct: host or cells: either rNanA from E. coli BL21(DE3) or total precipitated protein of S. pneumoniae DSM20566

[13] = system: influenza A virus WSN/33; assay: microbe, parasite or virus in culture; assay type: cell-based, influenza A virus A/WSN/1933 (H1N1); details: for IC50: Influenza A virus, WSN, MDCK, 48 h, read-out: 50% inhibitory concentration, influenza A virus WSN/33
[14] = biological target: IAV WSN/33 NA-wt (whole virus) (Influenza A virus, UniProt P03470); assay: biochemical; set-up: species or system influenza A virus A/WSN/1933 (H1N1); details: for IC50: NA inhibition using FL assay IC50, IAV WSN/33
[15] = system: IAV 5258/09 NA; assay: Hemagglutination (HA)-based NA inhibition assay, IAV 5258/09; assay type: cell-based, influenza A virus A/Jena/5258/2009 (H1N1); details: human erythrocytes
[16] = biological target: S. pneumoniae recombinant NanA 20566_CC (Streptococcus pneumoniae, UniProt P62575); assay: biochemical; set-up: species or system Streptococcus pneumoniae DSM20566; details: Km for MUNANA, kinetics with 1
[17] = biological target: S. pneumoniae recombinant NanA 8919_LC (Streptococcus pneumoniae, UniProt P62575); assay: biochemical; assay type: biochemical, Streptococcus pneumoniae CF8919; details: Km for MUNANA, kinetics with 1
[18] = biological target: S. pneumoniae recombinant NanA 9400_LC (Streptococcus pneumoniae, UniProt P62575); assay: biochemical; set-up: species or system Streptococcus pneumoniae CJ9400; details: Km for MUNANA, kinetics with 1
[19] = biological target: Influenza virus A/WSN/33 NA-wt (whole virus) (Influenza A virus, UniProt P03470); assay type: biochemical, influenza A virus A/WSN/1933 (H1N1); details: Km for MUNANA, kinetics with 1
[20] = biological target: S. pneumoniae recombinant NanA 9400_CC (Streptococcus pneumoniae, UniProt P62575); assay: biochemical; assay type: biochemical, Streptococcus pneumoniae CJ9400; details: Km for MUNANA, kinetics with 1
[21] = biological target: S. pneumoniae recombinant NanA 20566_LC (Streptococcus pneumoniae, UniProt P62575); assay: biochemical; set-up: species or system Streptococcus pneumoniae DSM20566; details: Km for MUNANA, kinetics with 1
[22] = human erythrocytes, 4 h at 37°C and 12 h at 4°C
[23] = MUNANA substrate, read-out: NA inhibition using FL assay IC50, S. p. DSM20566

Row | SMILES | IC50 [4] | IC50 [5] | CC50 [6] | IC50 [7] | inhibition at 50 µM [9] | IC50 [10] | IC50 [11] | IC50 [13] | sample concentrations provoking erythrocyte lysis, viral HA-assay ([1]; human erythrocytes, 2 h at 4°C) | NA inhibition using FL assay IC50, IAV WSN/33 [14] | sample concentrations provoking erythrocyte lysis, bacterial HA-assay [2, 22] | NA inhibition using HA assay MIC, IAV 5258/09 [15] | NA inhibition using HA assay MIC, S. p. DSM20566 ([8]; human erythrocytes) | IC50 [12, 23] | other results
1 | O=S(=O)(O)c1ccc2c(/N=N/c3ccc(Sc4ccc(/N=N/c5c(O)ccc6cc(S(=O)(=O)O)ccc56)cc4)cc3)c(O)ccc2c1 [Compound 2] | 9.09 ± 1.94 µM | 4.59 ± 2.45 µM | > 100 µM | < 15 µM | 47% | 83 ± 5.67 µM | 6.19 ± 4.62 µM | 11.8 ± 3.19 µM | – | – | – | – | – | – | sample concentrations provoking erythrocyte lysis, viral HA-assay [1]: no; sample concentrations provoking erythrocyte lysis, bacterial HA-assay [2]: no; Activity (bactericidal or bacteriostatic) ([3]; 25 µM): bacteriostatic; cfu per agar plate ([3]; 25 µM): > 150; Activity (bactericidal or bacteriostatic) ([3]; 50 µM): bacteriostatic; cfu per agar plate ([3]; 50 µM): > 150; NA inhibition using HA assay MIC, S. p. DSM20566 [8]: 10.00 ± 0.00 µM; IC50 ([12]; NA inhibition using FL assay IC50, S. p. DSM20566): 1.85 ± 0.1 µM
2 | O=S(=O)(O)c1ccc2c(/N=N/c3ccc(/N=N/c4ccccc4)cc3)c(O)ccc2c1 [Compound 3] | 14.4 ± 8.16 µM | 20.1 ± 2.24 µM | > 100 µM | < 15 µM | – | – | 13.6 ± 3.18 µM | 52.2 ± 17.9 µM | no | Not active | no | Not active^c | Not active^c | 11.6 ± 0.15 µM | 50% inhibitory concentration, S. pneumoniae DSM20566 biofilm formation [9]: Not active; NA inhibition using FL assay IC50, IAV HK/68 [10]: Not active
3 | Cc1ccccc1/N=N/c1ccc(/N=N/c2c(O)ccc3cc(S(=O)(=O)O)ccc23)c(C)c1 [Compound 4] | 12.1 ± 4.83 µM | 12 ± 6.81 µM | > 100 µM | < 15 µM | 46% | 71.1 ± 22 µM | 13.2 ± 3.11 µM | 14 ± 2.68 µM | no | Not active | 100 µM | Not active^c | Not active^c | 4.79 ± 1.31 µM | –
4 | O=S(=O)(O)c1ccc(/N=N/c2ccc(/N=N/c3ccc(O)c4ccccc34)cc2)cc1 [Compound 6] | 10.6 ± 0.71 µM | 6.14 ± 0.61 µM | > 100 µM | < 15 µM | 46% | 83.4 ± 3.67 µM | 20.8 ± 1.99 µM | 24.2 ± 9.78 µM | no | – | no | 24.40 ± 12.47 µM | Not active^c | 1.18 ± 0.55 µM | IC50 [14]: 36.4 ± 4.2 µM
5 | COc1cc(/N=N/c2ccc(S(=O)(=O)O)cc2)ccc1/N=N/c1c(O)ccc2ccccc12 [Compound 7] | 3.28 ± 2.19 µM | 3.32 ± 0.72 µM | > 100 µM | < 15 µM | 46% | 87.2 ± 8.03 µM | 4.22 ± 0.98 µM | 78.6 ± 16.2 µM | no | – | no | Not active^c | Not active^c | 5.6 ± 3.01 µM | IC50 [14]: 4.25 ± 1.25 µM
6 | O=S(=O)(O)c1cc2cccc(S(=O)(=O)O)c2c(O)c1/N=N/c1ccccc1 [Compound 17] | – | – | > 100 µM | – | – | – | – | – | no | Not active | no | Not active | Not active | – | 50% inhibitory concentration, influenza A virus 8178/09 [4]: Not active; 50% inhibitory concentration, S. pneumoniae DSM20566 planktonic growth [5]: Not active; 50% inhibitory concentration, S. pneumoniae DSM20566 biofilm formation [9]: Not active; NA inhibition using FL assay IC50, IAV HK/68 [10]: Not active; 50% inhibitory concentration, influenza A virus HK/68 [11]: Not active; NA inhibition using FL assay IC50, S. p. DSM20566 ([12]; MUNANA substrate): Not active; 50% inhibitory concentration, influenza A virus WSN/33 [13]: Not active
7 | C[C@@H](O)[C@H]1C(=O)N2C(C(=O)O)=C(SCCN=CN)C[C@H]12 [Imipenem, imipenem, reference compound] | – | – | – | – | – | – | – | – | – | – | – | – | – | – | Activity (bactericidal or bacteriostatic) ([3]; 0.1 µM): bactericidal; cfu per agar plate ([3]; 0.1 µM): < 150
8 | CC(=O)N[C@H]1[C@H]([C@H](O)[C@H](O)CO)O[C@@](Oc2ccc3c(C)cc(=O)oc3c2)(C(=O)O)C[C@@H]1O [MUNANA, 2′-(4-methylumbelliferyl)-α-D-N-acetylneuraminic acid sodium salt hydrate, reference compound] | – | – | – | – | – | – | – | – | – | – | – | – | – | – | Km [16]: 20.2 ± 4.74 µM; Km [17]: 18 ± 2.39 µM; Km [18]: 46.2 ± 1.71 µM; Km ([19]; 20 min preincubation): 44.2 ± 4.63 µM; Km ([19]; without preincubation (n = 2)): 40 ± 3.86 µM; Km [20]: 46.4 ± 3.93 µM; Km [21]: 17.9 ± 2.12 µM
